Source: paper PMC9323974, “Palladium(II) Complexes of Substituted Salicylaldehydes: Synthesis, Characterization and Investigation of Their Biological Profile” (Pharmaceuticals, 2022)
Read-outs that look alike come from different tables or passages of the source.

Assays:
[1] = ABTS radical cation scavenging; settings: compound 0.1 mM
Experimental: (§1) S1 Antioxidant biological assay
The antioxidant activity of the compounds was evaluated via their ability to scavenge in […]
vitro free radicals such as DPPH and ABTS and to reduce H2O2. […]
S1.2 Assay of radical cation ABTS–scavenging activity
The ABTS assay was performed to determine the activity of the compounds to scavenge the […]
radical cation ABTS. Initially, a water solution of ABTS was prepared (2 mM). ABTS radical cation […]
(ABTS+·) was produced by the reaction of ABTS stock solution with potassium persulfate (0.17 […]
mM) and the mixture was stored in the dark at room temperature for 12–16 h before its use. The […]
ABTS was oxidized incompletely because the stoichiometric reaction ratio of ABTS and potassium […]
persulfate is 1:0.5. The absorbance became maximal and stable only after more than 6 h of reaction […]
although the oxidation of the ABTS started immediately. The radical was stable in this form for […]
more than 2 days when allowed to stand in the dark at room temperature. Afterwards, the ABTS+· […]
solution was diluted in ethanol to an absorbance of 0.70 at 734 nm and 10 μL of diluted compounds or standards (0.1 mM) in DMSO were added. The absorbance was recorded out exactly 1 min after […]
initial mixing [S1]. The ABTS radical scavenging activity was expressed as the percentage inhibition of the absorbance of the initial ABTS solution (ABTS%). […]

DPPH radical scavenging = settings: compound 0.1 mM
Experimental: as §1
The antioxidant activity of the compounds was evaluated via their ability to scavenge in
vitro free radicals such as DPPH and ABTS and to reduce H2O2. All the experiments were carried
S1.1 Determination of the reducing activity of the stable radical DPPH
To an ethanolic solution of DPPH (0.1 mM) an equal volume solution of the compounds
(0.1 mM) in ethanol was added. Absolute ethanol was also used as control solution. The absorbance
at 517 nm was recorded at room temperature after 30 and 60 min, in order to examine the possible
existence of a potential time–dependence of the DPPH radical scavenging activity [S1]. The DPPH–
scavenging activity of the compounds was expressed as the percentage reduction of the absorbance
values of the initial DPPH solution (DPPH%). NDGA and BHT were used as reference compounds. […]

BSA = target: T1, BSA (Bos taurus, UniProt P02769); experiment: BSA fluorescence quenching; type: binding, bovine; settings: for ΔΙ/Ιο (%) BSA fluorescence quenching: BSA 3 μM; for K BSA-binding constant: Scatchard; for relative BSA-fluorescence emission intensity, % of the initial: final value
T1 construct: purchased Sigma-Aldrich Co
T1 sequence (P02769 25-607): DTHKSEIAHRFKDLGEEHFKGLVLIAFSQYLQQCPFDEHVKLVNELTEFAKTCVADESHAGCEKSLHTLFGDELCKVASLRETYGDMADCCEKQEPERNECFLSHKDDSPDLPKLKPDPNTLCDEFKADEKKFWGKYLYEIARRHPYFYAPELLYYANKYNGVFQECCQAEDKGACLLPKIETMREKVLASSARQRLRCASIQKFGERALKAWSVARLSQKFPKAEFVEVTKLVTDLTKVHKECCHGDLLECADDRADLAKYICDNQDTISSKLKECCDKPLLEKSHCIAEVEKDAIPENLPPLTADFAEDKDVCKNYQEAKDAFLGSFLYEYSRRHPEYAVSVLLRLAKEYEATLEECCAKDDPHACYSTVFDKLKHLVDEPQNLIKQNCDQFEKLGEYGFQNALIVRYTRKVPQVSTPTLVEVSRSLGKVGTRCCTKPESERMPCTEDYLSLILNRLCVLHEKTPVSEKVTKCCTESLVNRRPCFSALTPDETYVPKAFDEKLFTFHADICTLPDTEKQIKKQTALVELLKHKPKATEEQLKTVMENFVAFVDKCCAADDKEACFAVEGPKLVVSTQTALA
Experimental: S4 Interaction with serum albumins
S4.1 Study of the affinity for serum albumins
The albumin–binding study for the compounds was carried out by fluorescence emission quenching experiments using BSA (3 μM) or HSA (3 μM) in buffer solution (15 mM trisodium citrate and 150 mM NaCl at pH 7.0). The tested compounds were used as quenchers with gradually increasing concentrations to monitor the quenching of the emission intensity of tryptophan residues of BSA at 345 nm or HSA at 340 nm [S6]. The fluorescence emission spectra were recorded between 300–500 nm with excitation wavelength of 295 nm. All the experiments were conducted at room temperature. The fluorescence spectra of the compounds were recorded under the same experimental conditions and presented a low–intensity emission band in the region 395–415 nm.
Consequently, the SA fluorescence emission spectra were modified properly, by subtracting the spectra of the compounds, and quantitative studies followed.
The extent of the inner–filter effect can be roughly estimated with the following formula: […]
where Icorr= corrected intensity, Imeas= the measured intensity, c = the concentration of the quencher, d = the cuvette length (1 cm), ε(λexc) and ε(λem) = the ε of the quencher at the excitation and the emission wavelength, respectively, as calculated from the UV –vis spectra of the complexes [S 8].
The interaction of the quencher (i.e. compounds) with serum albumins [S6] was studied through the Stern–Volmer and Scatchard equations [S6] and corresponding graphs. The values of the respective Stern–Volmer constant KSV (M–1), the quenching constant k q (M–1s–1), the SA– binding constant K (M–1) and the number of binding sites per albumin (n) were calculated.
According to Stern–Volmer quenching equation [S6] (eq. S2), where I 0 = the initial tryptophan fluorescence intensity of SA, I = the tryptophan fluorescence intensity of SA after the addition of the quencher, kq = the quenching rate constants of SA, K SV = the dynamic quenching constant, τ0 = the average lifetime of SA without the quencher, [Q] = the concentration of the quencher), the Stern –Volmer constant (KSV, M–1) can be obtained by the slope of the diagram I0/I versus [Q]. Taking τ0 = 10–8 s as fluorescence lifetime of tryptophan in SA [S2], the quenching constant (kq, M–1s–1) is calculated from equation S3.
From the Scatchard equation (eq. S5) [S6]: […]
(1 picture or pasted object on this page, not shown here) […]
where n = the number of binding sites per albumin and K = the SA–binding constant. The K constant (M−1) is calculated from the slope in plots (ΔI/I0)/[Q] versus (ΔI/I0) and n is given by the ratio of y intercept to the slope [S9]. […]

HSA = target: T2, HSA (Homo sapiens, UniProt P02768); experiment: Competitive HSA-fluorescence studies with warfarin and ibuprofen; type: binding
T2 construct: purchased Sigma-Aldrich Co
T2 sequence (P02768 25-609): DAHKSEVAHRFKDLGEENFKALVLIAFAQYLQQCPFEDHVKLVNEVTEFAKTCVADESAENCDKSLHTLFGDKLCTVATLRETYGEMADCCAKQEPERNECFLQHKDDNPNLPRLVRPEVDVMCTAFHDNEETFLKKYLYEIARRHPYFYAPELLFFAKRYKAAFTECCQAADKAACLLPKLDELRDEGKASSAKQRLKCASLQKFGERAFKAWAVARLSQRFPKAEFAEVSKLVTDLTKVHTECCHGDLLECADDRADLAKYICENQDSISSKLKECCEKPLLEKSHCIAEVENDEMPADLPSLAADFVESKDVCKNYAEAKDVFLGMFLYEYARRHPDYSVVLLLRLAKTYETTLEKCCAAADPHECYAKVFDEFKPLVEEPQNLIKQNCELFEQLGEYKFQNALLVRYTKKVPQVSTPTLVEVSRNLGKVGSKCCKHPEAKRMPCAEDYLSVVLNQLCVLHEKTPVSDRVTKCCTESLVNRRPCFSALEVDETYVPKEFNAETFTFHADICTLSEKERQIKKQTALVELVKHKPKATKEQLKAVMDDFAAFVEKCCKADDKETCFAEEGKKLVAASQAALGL

[2] = read-out: HSA-binding constant K, Marker: Ibuprofen, ibuprofen
[3] = read-out: HSA-binding constant K, Marker: Warfarin, warfarin

Row | SMILES | ABTS% [1] | DPPH% (30 min) (DPPH radical scavenging) | DPPH% (60 min) (DPPH radical scavenging) | Kd (BSA) | kq BSA-quenching constant (BSA) | Kd (HSA) | Kd (HSA; [2]) | Kd (HSA; [3]) | ΔΙ/Ιο (%) BSA fluorescence quenching (BSA) | K BSA-binding constant (BSA) | relative BSA-fluorescence emission intensity, % of the initial (BSA) | HSA-binding constant K, Marker: Ibuprofen (HSA; ibuprofen) | HSA-binding constant K, No Marker (HSA) | HSA-binding constant K, Marker: Warfarin (HSA; warfarin) | HSA drug site preference (HSA; drug site I (warfarin) vs II (ibuprofen))
1 | CCN(CC)c1ccc(C=O)c(O)c1 [4-Et2N-saloH, 4-diethylamino-salicylaldehyde, reference compound] | 25.84 ± 0.34% | 2.47 ± 0.09% | 3.20 ± 0.08% | 2.4 µM | 1.41 (±0.06) × 10^13 M^−1 s^−1 | 2.48 µM | 23.8 µM | 4.39 µM | – | – | – | – | – | – | –
2 | COc1ccc(C=O)c(O)c1 [4-OMe-saloH, 4-methoxy-salicylaldehyde, reference compound] | 40.83 ± 0.44% | 4.16 ± 0.10% | 6.27 ± 0.25% | – | – | 10.3 µM | 21.3 µM | 60.2 µM | – | – | – | – | – | – | –
3 | O=Cc1cc(F)ccc1O [5-F-saloH, 5-fluoro-salicylaldehyde, reference compound] | 19.57 ± 0.58% | 3.96 ± 1.16% | 5.56 ± 1.06% | 23.2 µM | 1.98 (±0.08) × 10^12 M^−1 s^−1 | 21.5 µM | 16.1 µM | 33.1 µM | – | – | – | – | – | – | –
4 | CCN(CC)c1ccc(C=O)c([O][Pd][O]c2cc(N(CC)CC)ccc2C=O)c1 [Complex 1, [Pd(4-Et2N-salo)2]] | 97.05 ± 0.48% | 2.45 ± 0.09% | 4.00 ± 0.53% | – | 5.72 (±0.44) × 10^13 M^−1 s^−1 | – | – | – | 92.9% | 1.08 (±0.06) × 10^5 M^−1 | 7.2% | 1.86 (±0.12) × 10^5 M^−1 | 1.25 (±0.06) × 10^5 M^−1 | 6.89 (±0.28) × 10^4 M^−1 | –
5 | O=Cc1cc(Br)cc(Br)c1[O][Pd][O]c1c(Br)cc(Br)cc1C=O [Complex 2, [Pd(3,5-diBr-salo)2]] | 50.46 ± 0.91% | 7.99 ± 0.24% | 14.63 ± 0.53% | – | 2.11 (±0.08) × 10^14 M^−1 s^−1 | – | – | – | 97.5% | 1.50 (±0.06) × 10^6 M^−1 | 2.5% | 3.23 (±0.13) × 10^5 M^−1 | 4.12 (±0.15) × 10^5 M^−1 | 1.43 (±0.09) × 10^5 M^−1 | –
6 | O=Cc1cc(Cl)cc(Cl)c1[O-].O=Cc1cc(Cl)cc(Cl)c1[O-].[Pd+2] [Complex 3, [Pd(3,5-diCl-salo)2]] | 63.45 ± 0.38% | 4.60 ± 0.20% | 2.91 ± 0.11% | – | 1.11 (±0.04) × 10^14 M^−1 s^−1 | – | – | – | 97.2% | 7.82 (±0.24) × 10^5 M^−1 | 2.8% | 3.78 (±0.14) × 10^5 M^−1 | 4.10 (±0.17) × 10^5 M^−1 | 2.47 (±0.09) × 10^5 M^−1 | –
7 | O=Cc1cc(F)ccc1[O-].O=Cc1cc(F)ccc1[O-].[Pd+2] [Complex 4, [Pd(5-F-salo)2]] | 63.30 ± 0.53% | 14.82 ± 0.45% | 13.61 ± 0.48% | – | 2.24 (±0.14) × 10^13 M^−1 s^−1 | – | – | – | 85.7% | 8.79 (±0.13) × 10^4 M^−1 | 14.3% | 1.10 (±0.08) × 10^5 M^−1 | 1.38 (±0.05) × 10^5 M^−1 | 8.98 (±0.82) × 10^4 M^−1 | –
8 | COc1ccc(C=O)c([O-])c1.COc1ccc(C=O)c([O-])c1.[Pd+2] [Complex 5, [Pd(4-OMe-salo)2]] | 96.66 ± 0.46% | 2.29 ± 0.36% | 3.00 ± 0.25% | – | 2.17 (±0.09) × 10^14 M^−1 s^−1 | – | – | – | 97.2% | 9.18 (±0.27) × 10^5 M^−1 | 2.8% | 1.45 (±0.17) × 10^4 M^−1 | 3.56 (±0.12) × 10^5 M^−1 | 1.00 (±0.18) × 10^5 M^−1 | did not seem to show firmly a selectivity
